According to patent US6387947B1, “Antimicrobial cosmetic compositions” (E-L Management Corp., priority 1997, dated 2002):

Experiments:
[1] = system: PLA2 enzyme obtained from snake venom; conditions: assay concentrations 0.01, 0.1 and 1 mg/ml
Protocol: The enzyme reaction is accomplished in a cuvette containing […] of phosphate buffered saline. Fluorometric substrate NBD-C6-HPC is solubilized 1 mM in EtOH, and is diluted in the reaction mixture to yield a 10 μM final concentration. The assay is initiated with the addition of 0.001 units per μl of PLA2 enzyme obtained from snake venom. Enzyme activity is monitored either with or without the presence of potential inhibitors. […] Prior to enzyme addition, samples are measured fluorometrically at excitation 470 and emission 570 to determine background level of fluorescensce. Following enzyme addition, samples are monitored every 15 minutes over a 60 minute period.

[2] = system: lymphocyte adhesion to endothelial cells; experiment: inhibition of lymphocyte adhesion to endothelial cells; format: cell-based, human
Protocol: Endothelial cells are grown to confluence and washed thoroughly with basal media prior to the experiment to remove all fetal calf serum. The test compounds are then added to the endothelial culture well and incubated for 2 hours. IL-1β is added to stimulated expression of adhesion molecules on the endothelial cells before lymphocytes are added. Lymphocytes are isolated from blood collected from adult human subjects and added to the endothelial culture wells. PHA is added to stimulate adhesion molecule expression in the lymphocytes and the cultures incubated overnight. After a brief washing procedure, cells are incubated with Rose Bengal, and the number of adherent cells assessed by measuring the absorbance at 570 nm.

[3] = antiirritant effect against Balsam of Peru on ventral forearms of volunteers; format: in vivo, human; conditions: 0.1% in hydroalcohol 1:1, applied twenty minutes before Balsam of Peru; Minolta Chromameter; seven volunteers
Protocol: Seven volunteers with a history of skin sensitivity to Balsam of Peru are chosen for the study.
The test compounds are applied to the ventral forearms of panelists. The material is allowed to absorb for twenty minutes and then Balsam of Peru, an irritant is applied on the test sites. Skin irritation is measured in terms of increase in skin redness. The degree of redness is measured with a Minolta Chromameter and compared with the controls, the positive control being skin treated with Balsam of Peru alone, and the negative control being a skin site treated with 10% cola solution(a known antiirritant), and challenged like the test products.

Enterics [4] = experiment: microbial challenge of nonionic oil-in-water emulsion, pool 1; format: cell-based
Protocol: (§1) A nonionic oil-in-water emulsion is prepared containing 0.473% 3-furan carboxylic acid. The formulation is divided into five portions, each one getting an inoculation at day 0, and a reinoculation after three weeks, of one of the following microbial cultures: (1)Enterics; (2) Pseudomonas; (3)Staphylococcus; (4)Yeast; and (5)Mold. The concentration of microbes in each individual formulation is calculated on the day of the inoculation, and then again calculated on day 2, and at the end of one, two, three (pre-reinoculation) and four weeks, at a variety of pH values. These are also compared with formulations containing 2-furan carboxylic acid and an identical series of microbes, and an acid pH control emulsion without a furan carboxylic acid added. All numbers, other than those listed as “<10”, are log base 10; thus, for example, “6.6” is equivalent to the presence of […] bacteria. Entries of <10 indicate less than 10 colony forming units, the lowest level of detection.

Pseudomonas [5] = experiment: microbial challenge of nonionic oil-in-water emulsion, pool 2; format: cell-based; conditions: 0.375% in emulsion
mycobacteria = conditions: U.S. Pat. No. 5,387,605; cited from earlier work
Mold = experiment: microbial challenge of nonionic oil-in-water emulsion, pool 5; format: cell-based; conditions: for concentration of microbes: 0.375% in emulsion
Protocol: as §1

Staphylococcus = experiment: microbial challenge of nonionic oil-in-water emulsion, pool 3; format: cell-based; conditions: for concentration of microbes: 0.375% in emulsion
Protocol: The formulation is divided into five portions, each one getting an inoculation at day 0, and a reinoculation after three weeks, of one of the following microbial cultures: (1)Enterics; (2) Pseudomonas; (3)Staphylococcus; (4)Yeast; and (5)Mold. The concentration of microbes in each individual formulation is calculated on the day of the inoculation, and then again calculated on day 2, and at the end of one, two, three (pre-reinoculation) and four weeks, at a variety of pH values. These are also compared with formulations containing 2-furan carboxylic acid and an identical series of microbes, and an acid pH control emulsion without a furan carboxylic acid added. All numbers, other than those listed as “<10”, are log base 10; thus, for example, “6.6” is equivalent to the presence of […] bacteria. Entries of <10 indicate less than 10 colony forming units, the lowest level of detection.

Yeast [6] = experiment: microbial challenge of nonionic oil-in-water emulsion, pool 4; format: cell-based; conditions: 0.375% in emulsion
Pseudomonas [7] = experiment: microbial challenge of nonionic oil-in-water emulsion, pool 2; format: cell-based
Protocol: as §1

Enterics [8] = experiment: microbial challenge of nonionic oil-in-water emulsion, pool 1; format: cell-based; conditions: 0.375% in emulsion
Yeast [9] = experiment: microbial challenge of nonionic oil-in-water emulsion, pool 4; format: cell-based; conditions: for concentration of microbes: 0.375% in emulsion
Protocol: as §1

O=C(O)c1ccco1 [2-furan carboxylic acid]
PLA2 inhibition, in words [1]: capable of inhibiting the activity
EC-50 of PLA2 inhibition ([1]; calculated from linear fit): 0.5 mg/mL
inhibition of adhesion of polymorphonuclear leukocytes (PMNs) to activated endothelial cells, in words [2]: ability to inhibit the adhesion
inhibition of lymphocyte adhesion, in words (absorbance at 570 nm, Rose Bengal) ([2]; concentrations of 0.5% and 1%, IL-1β and PHA stimulated): very potent inhibitors of lymphocyte adhesion
effectiveness in preventing the onset of irritation (reduction of skin redness) [3]: 49%
antimicrobial activity against Enterics, in words (Enterics [4]): does exhibit inhibition
concentration of microbes (Pseudomonas [5]; pH 3.0, Week 1): <10 colony forming units
concentration of microbes (Pseudomonas [5]; pH 3.0, Week 3): <10 colony forming units
concentration of microbes (Pseudomonas [5]; pH 3.0, Week 4): <10 colony forming units
concentration of microbes (Pseudomonas [5]; pH 4.0, Day 2): <10 colony forming units
concentration of microbes (Pseudomonas [5]; pH 4.0, Week 3): <10 colony forming units
concentration of microbes (Pseudomonas [5]; pH 4.0, Week 4): <10 colony forming units
concentration of microbes (Pseudomonas [5]; pH 5.0, Day 2): >6 log base 10
concentration of microbes (Pseudomonas [5]; pH 5.0, Week 2): <10 colony forming units
concentration of microbes (Pseudomonas [5]; pH 5.0, Week 3): <10 colony forming units
antimicrobial activity against mycobacteria, in words (mycobacteria): particularly effective
antimicrobial activity against Mold, in words (Mold): very poor level of activity
concentration of microbes (Mold; pH 3.0, Day 0): 5.2 log base 10
concentration of microbes (Mold; pH 3.0, Day 2): <10 colony forming units
concentration of microbes (Mold; pH 3.0, Week 1): <10 colony forming units
concentration of microbes (Mold; pH 3.0, Week 2): <10 colony forming units
concentration of microbes (Mold; pH 3.0, Week 3): <10 colony forming units
concentration of microbes (Mold; pH 3.0, Week 4): <10 colony forming units
concentration of microbes (Mold; pH 4.0, Day 0): 5.2 log base 10
concentration of microbes (Mold; pH 4.0, Day 2): 1.6 log base 10
concentration of microbes (Mold; pH 4.0, Week 1): <10 colony forming units
concentration of microbes (Mold; pH 4.0, Week 2): <10 colony forming units
concentration of microbes (Mold; pH 4.0, Week 3): <10 colony forming units
concentration of microbes (Mold; pH 4.0, Week 4): <10 colony forming units
concentration of microbes (Mold; pH 5.0, Day 0): 5.2 log base 10
concentration of microbes (Mold; pH 5.0, Day 2): 5.2 log base 10
concentration of microbes (Mold; pH 5.0, Week 1): 5.2 log base 10
concentration of microbes (Mold; pH 5.0, Week 2): 5.2 log base 10
concentration of microbes (Mold; pH 5.0, Week 3): 3.0 log base 10
concentration of microbes (Mold; pH 5.0, Week 4): >5 log base 10
antimicrobial activity against Staphylococcus, in words (Staphylococcus): does exhibit inhibition
concentration of microbes (Staphylococcus; pH 3.0, Day 0): 6.3 log base 10
concentration of microbes (Staphylococcus; pH 3.0, Day 2): <10 colony forming units
concentration of microbes (Staphylococcus; pH 3.0, Week 1): <10 colony forming units
concentration of microbes (Staphylococcus; pH 3.0, Week 2): <10 colony forming units
concentration of microbes (Staphylococcus; pH 3.0, Week 3): <10 colony forming units
concentration of microbes (Staphylococcus; pH 3.0, Week 4): <10 colony forming units
concentration of microbes (Staphylococcus; pH 4.0, Day 0): 6.3 log base 10
concentration of microbes (Staphylococcus; pH 4.0, Day 2): <10 colony forming units
concentration of microbes (Staphylococcus; pH 4.0, Week 1): <10 colony forming units
concentration of microbes (Staphylococcus; pH 4.0, Week 2): <10 colony forming units
concentration of microbes (Staphylococcus; pH 4.0, Week 3): <10 colony forming units
concentration of microbes (Staphylococcus; pH 4.0, Week 4): <10 colony forming units
concentration of microbes (Staphylococcus; pH 5.0, Day 0): 6.3 log base 10
concentration of microbes (Staphylococcus; pH 5.0, Day 2): 2.9 log base 10
concentration of microbes (Staphylococcus; pH 5.0, Week 1): <10 colony forming units
concentration of microbes (Staphylococcus; pH 5.0, Week 2): <10 colony forming units
concentration of microbes (Staphylococcus; pH 5.0, Week 3): <10 colony forming units
concentration of microbes (Staphylococcus; pH 5.0, Week 4): <10 colony forming units
concentration of microbes (Yeast [6]; pH 3.0, Week 2): <10 colony forming units
concentration of microbes (Yeast [6]; pH 4.0, Week 1): 3.7 log base 10
concentration of microbes (Yeast [6]; pH 5.0, Week 2): >5.7 log base 10
concentration of microbes (Yeast [6]; pH 5.0, Week 3): >5.7 log base 10
antimicrobial activity against Pseudomonas, in words (Pseudomonas [7]): does exhibit inhibition
concentration of microbes (Enterics [8]; pH 3.0, Day 0): 6.6 log base 10
concentration of microbes (Enterics [8]; pH 3.0, Week 1): <10 colony forming units
concentration of microbes (Enterics [8]; pH 3.0, Week 2): <10 colony forming units
concentration of microbes (Enterics [8]; pH 3.0, Week 3): <10 colony forming units
concentration of microbes (Enterics [8]; pH 3.0, Week 4): <10 colony forming units
concentration of microbes (Enterics [8]; pH 4.0, Day 0): 6.6 log base 10
concentration of microbes (Enterics [8]; pH 4.0, Week 1): <10 colony forming units
concentration of microbes (Enterics [8]; pH 4.0, Week 4): <10 colony forming units
concentration of microbes (Enterics [8]; pH 5.0, Day 0): 6.6 log base 10
concentration of microbes (Enterics [8]; pH 5.0, Day 2): >6 log base 10
concentration of microbes (Enterics [8]; pH 5.0, Week 1): >6 log base 10
concentration of microbes (Enterics [8]; pH 5.0, Week 3): <10 colony forming units
concentration of microbes (Enterics [8]; pH 5.0, Week 4): <10 colony forming units
antimicrobial activity against yeast, in words (Yeast [9]): very poor level of activity
concentration of microbes (Yeast [9]; pH 3.0, Day 0): 5.7 log base 10
concentration of microbes (Yeast [9]; pH 3.0, Day 2): <10 colony forming units
concentration of microbes (Yeast [9]; pH 3.0, Week 1): <10 colony forming units
concentration of microbes (Yeast [9]; pH 3.0, Week 3): <10 colony forming units
concentration of microbes (Yeast [9]; pH 3.0, Week 4): <10 colony forming units
concentration of microbes (Yeast [9]; pH 4.0, Day 0): 5.7 log base 10
concentration of microbes (Yeast [9]; pH 4.0, Day 2): 3.7 log base 10
concentration of microbes (Yeast [9]; pH 4.0, Week 2): <10 colony forming units
concentration of microbes (Yeast [9]; pH 4.0, Week 3): <10 colony forming units
concentration of microbes (Yeast [9]; pH 4.0, Week 4): >5.7 log base 10
concentration of microbes (Yeast [9]; pH 5.0, Day 0): 5.7 log base 10
concentration of microbes (Yeast [9]; pH 5.0, Day 2): >5.7 log base 10
concentration of microbes (Yeast [9]; pH 5.0, Week 1): >5.7 log base 10
concentration of microbes (Yeast [9]; pH 5.0, Week 4): >5.7 log base 10
